Results published in patent US8815565B2, “Method for culturing mycoplasma contamination-free cells and method for removing mycoplasma contamination of cells” (Cellsafe Co., Ltd., priority 2010, dated 2014).

System: cells contaminated with mycoplasma
Experiment: Mycoplasma removal potential when amphidinol derivative was used, by filter pore size
Format: cell-based
Procedure: A medium was removed from the cell culture (80 to 90% confluent) which was cultured in the T-75 culture flask in (1) of Example 3 and which was confirmed as being contaminated with mycoplasma. The obtained cells were washed twice with 10 ml of a phosphate buffer solution. 2 ml of trypsin-EDTA was added thereto, followed by incubating at a temperature of 37° C. for 10 minutes to detach cells. Then, DMEM (GIBCO BRL, Cat. No. 12800-058) was added thereto to obtain 10 ml of cell suspension, which was then transferred to a 15 ml conical tube. The cell suspension in the conical tube was centrifuged at a rate of 1,500 rpm for 5 minutes, and then the supernatant was removed therefrom. 10 ml of 5% FBS-containing DMEM (GIBCO BRL, Cat. No. 12800-058) was added to the conical tube to obtain a cell suspension. The obtained cell suspension was divided into two groups each having an amount of 5 ml. […] The cell suspensions of the group 1 and 2 were diluted with 5% FBS-including DMEM (GIBCO BRL, Cat. No. 12800-058) to adjust the cell concentration to about 2.5×10^5 cells/ml, respectively. 4 ml of each cell suspension of the group 1 and 2 (each having about 2.5×10^5 cells/ml of cells) was transferred to a 15 ml tube, and then […] of 5% FBS-containing DMEM (GIBCO BRL, Cat. No. 12800-058) was added thereto. […] 10 ml of each of the obtained mixtures was transferred to a T-75 culture flask, followed by culturing for 3 days in a CO2 incubator for 3 days (passage 1 sub-culturing).
The medium was removed from the cell culture (80 to 90% confluent) which was cultured in the T-75 culture flask for 3 days. The obtained cells were washed twice with 10 ml of a phosphate buffer solution. 2 ml of trypsin-EDTA was added thereto, followed by incubating at a temperature of 37° C. for 10 minutes to detach the cells. Then, DMEM (GIBCO BRL, Cat. No. 12800-058) was added thereto to obtain 10 ml of cell suspension, which was then transferred to a 15 ml conical tube. The cell suspension in the conical tube was centrifuged at a rate of 1,500 rpm for 5 minutes, and then the supernatant was removed therefrom. 10 ml of 10% FBS-containing DMEM (GIBCO BRL, Cat. No. 12800-058) was added to the conical tube to obtain a cell suspension. The obtained cell suspension was divided into two groups each having an amount of 5 ml. […] The cell suspensions of the group 1 and 2 were diluted with 10% FBS-including DMEM (GIBCO BRL, Cat. No. 12800-058) to adjust the cell concentration to about 2.5×10^5 cells/ml, respectively. 4 ml of each cell suspension of the group 1 and 2 (each having about 2.5×10^5 cells/ml of cells) was transferred to a 15 ml tube, and then 5.5 ml of 10% FBS-containing DMEM (GIBCO BRL, Cat. No. 12800-058) was added thereto. […] 10 ml of each of the obtained mixtures was transferred to a T-75 culture flask, followed by culturing […] (passage 2 sub-culturing). The sub-culturing was performed twice more, and thus, passage 4 sub-culturing steps in total were performed.
Mycoplasma contamination was measured regarding the respective cells of the additional passages 1, 3, 6, 10, 12, 15, and 33 after the initial passage 4 treatments. Whether mycoplasma was removed was measured with a mycoplasma diagnosis kit (Promokine, Germany; Cellsafe Co., Ltd., Korea) according to the enclosed protocol. The resulting PCR products were electrophoresed on a 1% agarose gel to measure the mycoplasma contamination.
Sub-culturing was performed in the same manner as in (1), except that 2 μg/ml of the compound of Formula 3 was used as a reagent for removing mycoplasma , and the filters (Millipore) having pore sizes of 11, 20, 30, 60, 80, 90, and 100 μm and the filters (Falcon) having pore sizes of 40, 50, and 70 μm were used, and then, the mycoplasma contamination was measured.

In the case of C=C/C=C/CC/C=C/C=C/C=C/CC/C=C/C(O)C(O)C1OC(C(O)C(O)C(=C)CCC(O)C2CC(O)C(O)C(C(O)C(O)/C=C(\C)CCC(O)CC(O)C(O)C(C)CC(O)C(O)CCCCCC(O)CCCC(O)/C=C/CC(O)/C=C/CC(O)CO)O2)CC(O)C1O (centres unmarked) [AM3, amphidinol 3], the mycoplasma contamination (2 μg/ml, Pore size 11 μm, Passage 1 after treatment) was “−”, the mycoplasma contamination (2 μg/ml, Pore size 11 μm, Passage 3 after treatment) was “−” and the mycoplasma contamination (2 μg/ml, Pore size 11 μm, Passage 6 after treatment) was “−”. For the same molecule, the mycoplasma contamination (2 μg/ml, Pore size 11 μm, Passage 10 after treatment) was “−”, the mycoplasma contamination (2 μg/ml, Pore size 11 μm, Passage 12 after treatment) was “−” and the mycoplasma contamination (2 μg/ml, Pore size 11 μm, Passage 15 after treatment) was “−”. The mycoplasma contamination (2 μg/ml, Pore size 11 μm, Passage 33 after treatment) was “−”, the mycoplasma contamination (2 μg/ml, Pore size 20 μm, Passage 1 after treatment) was “−” and the mycoplasma contamination (2 μg/ml, Pore size 20 μm, Passage 3 after treatment) was “−”. For the same molecule, the mycoplasma contamination (2 μg/ml, Pore size 20 μm, Passage 6 after treatment) was “−”, the mycoplasma contamination (2 μg/ml, Pore size 20 μm, Passage 10 after treatment) was “−” and the mycoplasma contamination (2 μg/ml, Pore size 20 μm, Passage 12 after treatment) was “−”. For the same molecule, the mycoplasma contamination (2 μg/ml, Pore size 20 μm, Passage 15 after treatment) was “−”, the mycoplasma contamination (2 μg/ml, Pore size 20 μm, Passage 33 after treatment) was “−” and the mycoplasma contamination (2 μg/ml, Pore size 30 μm, Passage 1 after treatment) was “−”. For the same molecule, the mycoplasma contamination (2 μg/ml, Pore size 30 μm, Passage 3 after treatment) was “−”, the mycoplasma contamination (2 μg/ml, Pore size 30 μm, Passage 6 after treatment) was “−” and the mycoplasma contamination (2 μg/ml, Pore size 30 μm, Passage 10 after treatment) was “−”. The mycoplasma contamination (2 μg/ml, Pore size 30 μm, Passage 12 after treatment) was “−”, the mycoplasma contamination (2 μg/ml, Pore size 30 μm, Passage 15 after treatment) was “−” and the mycoplasma contamination (2 μg/ml, Pore size 30 μm, Passage 33 after treatment) was “−”. For the same molecule, the mycoplasma contamination (2 μg/ml, Pore size 40 μm, Passage 1 after treatment) was “−”, the mycoplasma contamination (2 μg/ml, Pore size 40 μm, Passage 3 after treatment) was “−” and the mycoplasma contamination (2 μg/ml, Pore size 40 μm, Passage 6 after treatment) was “−”. The mycoplasma contamination (2 μg/ml, Pore size 40 μm, Passage 10 after treatment) was “−”, the mycoplasma contamination (2 μg/ml, Pore size 40 μm, Passage 12 after treatment) was “−” and the mycoplasma contamination (2 μg/ml, Pore size 40 μm, Passage 15 after treatment) was “−”. The mycoplasma contamination (2 μg/ml, Pore size 40 μm, Passage 33 after treatment) was “−”, the mycoplasma contamination (2 μg/ml, Pore size 50 μm, Passage 1 after treatment) was “−” and the mycoplasma contamination (2 μg/ml, Pore size 50 μm, Passage 3 after treatment) was “−”. The mycoplasma contamination (2 μg/ml, Pore size 50 μm, Passage 6 after treatment) was “−”, the mycoplasma contamination (2 μg/ml, Pore size 50 μm, Passage 10 after treatment) was “−” and the mycoplasma contamination (2 μg/ml, Pore size 50 μm, Passage 12 after treatment) was “−”. The mycoplasma contamination (2 μg/ml, Pore size 50 μm, Passage 15 after treatment) was “−”, the mycoplasma contamination (2 μg/ml, Pore size 50 μm, Passage 33 after treatment) was “−” and the mycoplasma contamination (2 μg/ml, Pore size 60 μm, Passage 1 after treatment) was “−”. For the same molecule, the mycoplasma contamination (2 μg/ml, Pore size 60 μm, Passage 3 after treatment) was “−”, the mycoplasma contamination (2 μg/ml, Pore size 60 μm, Passage 6 after treatment) was “−” and the mycoplasma contamination (2 μg/ml, Pore size 60 μm, Passage 10 after treatment) was “−”. The mycoplasma contamination (2 μg/ml, Pore size 60 μm, Passage 12 after treatment) was “−”, the mycoplasma contamination (2 μg/ml, Pore size 60 μm, Passage 15 after treatment) was “−” and the mycoplasma contamination (2 μg/ml, Pore size 60 μm, Passage 33 after treatment) was “−”. For the same molecule, the mycoplasma contamination (2 μg/ml, Pore size 70 μm, Passage 1 after treatment) was “−”, the mycoplasma contamination (2 μg/ml, Pore size 70 μm, Passage 3 after treatment) was “−” and the mycoplasma contamination (2 μg/ml, Pore size 70 μm, Passage 6 after treatment) was “−”. The mycoplasma contamination (2 μg/ml, Pore size 70 μm, Passage 10 after treatment) was “−”, the mycoplasma contamination (2 μg/ml, Pore size 70 μm, Passage 12 after treatment) was “−” and the mycoplasma contamination (2 μg/ml, Pore size 70 μm, Passage 15 after treatment) was “−”. The mycoplasma contamination (2 μg/ml, Pore size 70 μm, Passage 33 after treatment) was “−”, the mycoplasma contamination (2 μg/ml, Pore size 80 μm, Passage 1 after treatment) was “−” and the mycoplasma contamination (2 μg/ml, Pore size 80 μm, Passage 3 after treatment) was “−”. For the same molecule, the mycoplasma contamination (2 μg/ml, Pore size 80 μm, Passage 6 after treatment) was “−”, the mycoplasma contamination (2 μg/ml, Pore size 80 μm, Passage 10 after treatment) was “−” and the mycoplasma contamination (2 μg/ml, Pore size 80 μm, Passage 12 after treatment) was “−”. The mycoplasma contamination (2 μg/ml, Pore size 80 μm, Passage 15 after treatment) was “−”, the mycoplasma contamination (2 μg/ml, Pore size 80 μm, Passage 33 after treatment) was “−” and the mycoplasma contamination (2 μg/ml, Pore size 90 μm, Passage 1 after treatment) was “−”. For the same molecule, the mycoplasma contamination (2 μg/ml, Pore size 90 μm, Passage 3 after treatment) was “−”, the mycoplasma contamination (2 μg/ml, Pore size 90 μm, Passage 6 after treatment) was “−” and the mycoplasma contamination (2 μg/ml, Pore size 90 μm, Passage 10 after treatment) was “−”. For the same molecule, the mycoplasma contamination (2 μg/ml, Pore size 90 μm, Passage 12 after treatment) was “−”, the mycoplasma contamination (2 μg/ml, Pore size 90 μm, Passage 15 after treatment) was “−” and the mycoplasma contamination (2 μg/ml, Pore size 90 μm, Passage 33 after treatment) was “−”. For the same molecule, the mycoplasma contamination (2 μg/ml, Pore size 100 μm, Passage 1 after treatment) was “−”, the mycoplasma contamination (2 μg/ml, Pore size 100 μm, Passage 3 after treatment) was “−” and the mycoplasma contamination (2 μg/ml, Pore size 100 μm, Passage 6 after treatment) was “−”. The mycoplasma contamination (2 μg/ml, Pore size 100 μm, Passage 10 after treatment) was “−”, the mycoplasma contamination (2 μg/ml, Pore size 100 μm, Passage 12 after treatment) was “−” and the mycoplasma contamination (2 μg/ml, Pore size 100 μm, Passage 15 after treatment) was “−”. The mycoplasma contamination (2 μg/ml, Pore size 100 μm, Passage 33 after treatment) was “−” and the mycoplasma contamination (filter having a pore size of 10 to 100 μM) was “completely removed”.
